Laboratory results from ChEMBL document CHEMBL1147420, “Synthesis and biological evaluation of novel coumarin derivatives with a 7-azomethine linkage” (2004).

Assays:
Type in all cases: functional
[1] = target: Serine protease 1 (Homo sapiens) (UniProt P07477); test: Compound was evaluated for in vitro inhibition of trypsin acting as esterase at 1 mM concentration
[2] = target: Serine protease 1 (Homo sapiens) (UniProt P07477); test: Compound was evaluated for in vitro inhibition of trypsin acting as esterase at 0.1 mM concentration
[3] = Competition percent of compound with DMSO for hydroxyl radical was determined at 0.1 mM concentration
[4] = Interaction percent with DPPH after 60 minutes was determined at 0.5 mM concentration
[5] = target: Chymotrypsinogen B (Homo sapiens) (UniProt P17538); test: Compound was evaluated for in vitro inhibition of chymotrypsinogen acting as esterase at 0.1 mM concentration
[6] = target: Chymotrypsinogen B (Homo sapiens) (UniProt P17538); test: Compound was evaluated for in vitro inhibition of chymotrypsinogen induced proteolysis at 0.1 mM concentration
[7] = Interaction percent with DPPH after 60 minutes was determined at 0.1 mM concentration
[8] = Compound was evaluated for percent inhibition of carrageenan induced rat paw edema at 0.005 mmol/kg
[9] = Interaction percent with DPPH after 20 minutes was determined at 0.1 mM concentration
[10] = target: T1, Seed linoleate 13S-lipoxygenase-1 (Glycine max) (UniProt P08170); test: Compound was evaluated for in vitro inhibition of soybean lipoxygenase at 1 mM concentration; no action
T1 sequence (whole entry): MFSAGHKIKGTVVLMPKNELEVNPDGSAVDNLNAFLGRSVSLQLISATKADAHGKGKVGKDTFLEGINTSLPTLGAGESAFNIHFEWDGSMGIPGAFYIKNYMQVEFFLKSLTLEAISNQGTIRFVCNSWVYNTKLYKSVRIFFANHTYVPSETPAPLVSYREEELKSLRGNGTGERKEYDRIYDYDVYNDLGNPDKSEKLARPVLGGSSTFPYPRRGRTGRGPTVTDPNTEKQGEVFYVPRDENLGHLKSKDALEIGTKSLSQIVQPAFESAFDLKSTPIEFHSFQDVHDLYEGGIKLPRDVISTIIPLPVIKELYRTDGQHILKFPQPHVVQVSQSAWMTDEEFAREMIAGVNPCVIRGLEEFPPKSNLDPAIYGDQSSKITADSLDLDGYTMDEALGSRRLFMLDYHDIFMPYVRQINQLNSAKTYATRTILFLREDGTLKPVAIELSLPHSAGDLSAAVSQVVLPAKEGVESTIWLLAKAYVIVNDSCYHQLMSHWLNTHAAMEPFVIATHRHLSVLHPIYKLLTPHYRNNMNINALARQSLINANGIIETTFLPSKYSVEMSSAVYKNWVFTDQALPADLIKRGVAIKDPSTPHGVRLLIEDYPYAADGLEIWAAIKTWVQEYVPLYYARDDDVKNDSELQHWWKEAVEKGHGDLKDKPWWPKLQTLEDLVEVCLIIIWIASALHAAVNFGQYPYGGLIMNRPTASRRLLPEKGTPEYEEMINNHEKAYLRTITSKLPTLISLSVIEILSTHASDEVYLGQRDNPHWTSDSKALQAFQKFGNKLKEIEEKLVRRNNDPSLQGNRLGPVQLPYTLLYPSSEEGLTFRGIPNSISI

[11] = target: Serine protease 1 (Homo sapiens) (UniProt P07477); test: Compound was evaluated for in vitro inhibition of trypsin induced proteolysis at 1 mM concentration
[12] = target: Serine protease 1 (Homo sapiens) (UniProt P07477); test: Compound was evaluated for in vitro inhibition of trypsin induced proteolysis at 0.1 mM concentration
[13] = Interaction percent with DPPH after 20 minutes was determined at 0.5 mM concentration
[14] = target: Chymotrypsinogen B (Homo sapiens) (UniProt P17538); test: Compound was evaluated for in vitro inhibition of chymotrypsinogen induced proteolysis at 1 mM concentration
[15] = target: Chymotrypsinogen B (Homo sapiens) (UniProt P17538); test: Compound was evaluated for in vitro inhibition of chymotrypsinogen acting as esterase at 1 mM concentration

Serine protease 1 (Homo sapiens), sequence (P07477 whole entry): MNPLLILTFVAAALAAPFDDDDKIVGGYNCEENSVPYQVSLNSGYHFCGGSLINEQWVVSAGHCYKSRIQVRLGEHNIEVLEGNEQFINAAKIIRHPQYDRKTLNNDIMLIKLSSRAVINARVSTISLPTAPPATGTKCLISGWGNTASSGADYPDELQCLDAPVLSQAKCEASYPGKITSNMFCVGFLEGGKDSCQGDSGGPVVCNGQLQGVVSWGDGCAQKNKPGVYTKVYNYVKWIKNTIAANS
Chymotrypsinogen B (Homo sapiens), sequence (P17538 34-164 limits assumed, other chains not shown): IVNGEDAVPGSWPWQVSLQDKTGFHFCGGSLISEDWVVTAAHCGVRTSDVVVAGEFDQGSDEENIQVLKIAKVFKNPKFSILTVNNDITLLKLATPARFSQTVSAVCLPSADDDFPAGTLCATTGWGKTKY
Chymotrypsinogen B (Homo sapiens), sequence (P17538 167-263 limits assumed, other chains not shown): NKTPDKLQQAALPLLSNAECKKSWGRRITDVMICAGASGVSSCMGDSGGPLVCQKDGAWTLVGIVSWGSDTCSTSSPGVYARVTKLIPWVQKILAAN

Molecule `CC(=O)CC(c1ccccc1)c1c(O)c2ccccc2oc1=O` (stereo not given) [WARFARIN] has an inhibition [1] of 97.5%, an inhibition [2] of 21.2% and a Competition [3] of 95.8%. For the same molecule, the RA [4] was 12.8%, the inhibition [5] was 18.4% and the inhibition [6] was 62.4%. For the same molecule, the RA [7] was 24%, the inhibition in vivo at 5 µmol/kg [8] was 41% and the RA [9] was 9.2%. The inhibition [10] was “No action”, the inhibition [11] was 94.8% and the inhibition [12] was 92.5%. For the same molecule, the RA [13] was 10.3%, the inhibition [14] was 86.7% and the inhibition [15] was 98.2%.
